# Laboratory results from the supplement of paper PMC8960247.
# ± gives the standard error.
# Assays:
# 621-102 (TSC2-deficient) = experiment: relative viability vs DMSO; higher = less cytotoxic; conditions: serum: 10% FBS, 72 h
# 621-103 (TSC2-rescued) = experiment: as above; conditions: serum: 10% FBS, 72 h
# 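Note: immortalized renal angiomyolipoma cells stably carrying empty vector or TSC2, dosed in 384-well plates in DMEM, viability normalized to vehicle-treated wells within each plate.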
smiles,measurement,setting,value
C=CC(=O)N1CCC[C@@H](n2nc(-c3ccc(Oc4ccccc4)cc3)c3c(N)ncnc32)C1,relative viability,621-102 (TSC2-deficient); 0.0001 µM,108 ± 3.1%
same,relative viability,621-102 (TSC2-deficient); 0.001 µM,99.6 ± 2.7%
same,relative viability,621-102 (TSC2-deficient); 0.01 µM,102 ± 1.1%
same,relative viability,621-102 (TSC2-deficient); 0.1 µM,108 ± 4.7%
same,relative viability,621-102 (TSC2-deficient); 1 µM,112.7 ± 0.33%
same,relative viability,621-102 (TSC2-deficient); 10 µM,110 ± 4.6%
same,relative viability,621-103 (TSC2-rescued); 0.0001 µM,99.6 ± 3.6%
same,relative viability,621-103 (TSC2-rescued); 0.001 µM,97.1 ± 1.7%
same,relative viability,621-103 (TSC2-rescued); 0.01 µM,98.8 ± 1.5%
same,relative viability,621-103 (TSC2-rescued); 0.1 µM,103 ± 3%
same,relative viability,621-103 (TSC2-rescued); 1 µM,108.4 ± 0.78%
same,relative viability,621-103 (TSC2-rescued); 10 µM,105 ± 3.9%
CC(=O)c1c(C)c2cnc(Nc3ccc(N4CCNCC4)cn3)nc2n(C2CCCC2)c1=O,relative viability,621-102 (TSC2-deficient); 0.0001 µM,103 ± 1.6%
same,relative viability,621-102 (TSC2-deficient); 0.001 µM,109.7 ± 0.24%
same,relative viability,621-102 (TSC2-deficient); 0.01 µM,110 ± 2.1%
same,relative viability,621-102 (TSC2-deficient); 0.1 µM,109 ± 5%
same,relative viability,621-102 (TSC2-deficient); 1 µM,115 ± 1.2%
same,relative viability,621-102 (TSC2-deficient); 10 µM,79 ± 4.2%
same,relative viability,621-103 (TSC2-rescued); 0.0001 µM,102.3 ± 0.35%
same,relative viability,621-103 (TSC2-rescued); 0.001 µM,104.8 ± 0.95%
same,relative viability,621-103 (TSC2-rescued); 0.01 µM,100.9 ± 0.84%
same,relative viability,621-103 (TSC2-rescued); 0.1 µM,104.4 ± 0.59%
same,relative viability,621-103 (TSC2-rescued); 1 µM,106.6 ± 0.72%
same,relative viability,621-103 (TSC2-rescued); 10 µM,76.7 ± 1.6%
CC(C)(C(=O)NCC(F)(F)C(F)(F)F)C(=O)N[C@@H]1C(=O)Nc2ccccc2-c2ccccc21,relative viability,621-102 (TSC2-deficient); 0.0001 µM,110 ± 1.1%
same,relative viability,621-102 (TSC2-deficient); 0.001 µM,115 ± 1.2%
same,relative viability,621-102 (TSC2-deficient); 0.01 µM,119.5 ± 0.86%
same,relative viability,621-102 (TSC2-deficient); 0.1 µM,113.8 ± 0.66%
same,relative viability,621-102 (TSC2-deficient); 1 µM,114.3 ± 1.1%
same,relative viability,621-102 (TSC2-deficient); 10 µM,113 ± 1.8%
same,relative viability,621-103 (TSC2-rescued); 0.0001 µM,102.1 ± 0.81%
same,relative viability,621-103 (TSC2-rescued); 0.001 µM,104 ± 1.3%
same,relative viability,621-103 (TSC2-rescued); 0.01 µM,104.2 ± 0.26%
same,relative viability,621-103 (TSC2-rescued); 0.1 µM,106 ± 1.1%
same,relative viability,621-103 (TSC2-rescued); 1 µM,103.7 ± 0.41%
same,relative viability,621-103 (TSC2-rescued); 10 µM,101.8 ± 0.77%
CC(C)(C)Cn1c(N)nc2ccc(-c3[nH]c(C(C)(C)C)nc3-c3ccc(F)cc3)nc21,relative viability,621-102 (TSC2-deficient); 0.0001 µM,100 ± 4.4%
same,relative viability,621-102 (TSC2-deficient); 0.001 µM,99.6 ± 4.4%
same,relative viability,621-102 (TSC2-deficient); 0.01 µM,100 ± 2.6%
same,relative viability,621-102 (TSC2-deficient); 0.1 µM,107 ± 4.4%
same,relative viability,621-102 (TSC2-deficient); 1 µM,99.1 ± 3.6%
same,relative viability,621-102 (TSC2-deficient); 10 µM,95.24 ± 0.28%
same,relative viability,621-103 (TSC2-rescued); 0.0001 µM,94.2 ± 2.7%
same,relative viability,621-103 (TSC2-rescued); 0.001 µM,98.1 ± 2.3%
same,relative viability,621-103 (TSC2-rescued); 0.01 µM,97.1 ± 3.8%
same,relative viability,621-103 (TSC2-rescued); 0.1 µM,95.4 ± 1.8%
same,relative viability,621-103 (TSC2-rescued); 1 µM,93.7 ± 0.94%
same,relative viability,621-103 (TSC2-rescued); 10 µM,78.75 ± 0.41%
CC(C)CC(=O)Nc1n[nH]c2c1CN(C(=O)C1CCN(C)CC1)C2(C)C,relative viability,621-102 (TSC2-deficient); 0.0001 µM,105.5 ± 0.63%
same,relative viability,621-102 (TSC2-deficient); 0.001 µM,109 ± 4%
same,relative viability,621-102 (TSC2-deficient); 0.01 µM,103 ± 2.3%
same,relative viability,621-102 (TSC2-deficient); 0.1 µM,93.5 ± 0.62%
same,relative viability,621-102 (TSC2-deficient); 1 µM,79 ± 1.2%
same,relative viability,621-102 (TSC2-deficient); 10 µM,13.5 ± 0.25%
same,relative viability,621-103 (TSC2-rescued); 0.0001 µM,100.3 ± 0.33%
same,relative viability,621-103 (TSC2-rescued); 0.001 µM,101 ± 2%
same,relative viability,621-103 (TSC2-rescued); 0.01 µM,102 ± 1.2%
same,relative viability,621-103 (TSC2-rescued); 0.1 µM,102 ± 1.3%
same,relative viability,621-103 (TSC2-rescued); 1 µM,94.4 ± 1.7%
same,relative viability,621-103 (TSC2-rescued); 10 µM,22.5 ± 1.5%
CC(C)c1cc(-c2ccc(F)c3ccccc23)nc(N)n1,relative viability,621-102 (TSC2-deficient); 0.0001 µM,91.6 ± 2.5%
same,relative viability,621-102 (TSC2-deficient); 0.001 µM,107 ± 7%
same,relative viability,621-102 (TSC2-deficient); 0.01 µM,99.3 ± 4.8%
same,relative viability,621-102 (TSC2-deficient); 0.1 µM,94.6 ± 1.2%
same,relative viability,621-102 (TSC2-deficient); 1 µM,93.4 ± 2.1%
same,relative viability,621-102 (TSC2-deficient); 10 µM,97.22 ± 0.33%
same,relative viability,621-103 (TSC2-rescued); 0.0001 µM,96.2 ± 4.6%
same,relative viability,621-103 (TSC2-rescued); 0.001 µM,92.2 ± 4.8%
same,relative viability,621-103 (TSC2-rescued); 0.01 µM,97.9 ± 1.5%
same,relative viability,621-103 (TSC2-rescued); 0.1 µM,107 ± 3.5%
same,relative viability,621-103 (TSC2-rescued); 1 µM,101.7 ± 0.2%
same,relative viability,621-103 (TSC2-rescued); 10 µM,98.4 ± 1.7%
CC1(C)C(=O)N(CCN2CCC(C(=O)c3ccc(F)cc3)CC2)c2ccccc21,relative viability,621-102 (TSC2-deficient); 0.0001 µM,102.5 ± 0.86%
same,relative viability,621-102 (TSC2-deficient); 0.001 µM,103 ± 1.4%
same,relative viability,621-102 (TSC2-deficient); 0.01 µM,97.2 ± 4.5%
same,relative viability,621-102 (TSC2-deficient); 0.1 µM,97.5 ± 1.1%
same,relative viability,621-102 (TSC2-deficient); 1 µM,97 ± 1.2%
same,relative viability,621-102 (TSC2-deficient); 10 µM,97.4 ± 5.7%
same,relative viability,621-103 (TSC2-rescued); 0.0001 µM,101 ± 2.5%
same,relative viability,621-103 (TSC2-rescued); 0.001 µM,97.9 ± 4.5%
same,relative viability,621-103 (TSC2-rescued); 0.01 µM,96.93 ± 0.26%
same,relative viability,621-103 (TSC2-rescued); 0.1 µM,101 ± 4.7%
same,relative viability,621-103 (TSC2-rescued); 1 µM,96.7 ± 2%
same,relative viability,621-103 (TSC2-rescued); 10 µM,94.8 ± 1.9%
